Laboratory results taken from patent US7141553B2, “A3AR agonists for the treatment of inflammatory arthritis” (Can-Fite Biopharma Ltd. Israel, priority 2002, dated 2006).

Assays:
[1] = Repeat dose study in healthy men, plasma pharmacokinetics; type: in vivo, human
Description: (§1) In the single dose study, 15 healthy men (3 groups of 5) received a single oral dose of IB-MECA (1, 5 or 10 mg) or placebo. In each group, 1 subject received placebo. In the repeated dose study, 28 healthy men (4 groups of 7) received repeated oral doses of IB-MECA (2, 3, 4 or 5 mg) or placebo every 12 h for 7 days. In each group, 2 subjects received placebo.
(§2) In the single dose study, a solution with IB-MECA powder in 30% Cremophor RH40 (BASF) was used. In the repeated dose study, an aqueous 0.5% methylcellulose suspension (Methocel A4M Premium, The Dow Chemical Company) was used. In both studies, the study medication was taken orally as a drink, followed by 50 ml of tap water.
(§3) The following procedures were done: • Safety assesment: laboratory assessments (routine biochemistry and urinalysis), physical examination, 12-lead ECG, ambulatory ECG, pulmonary function testing (FEV1), vital signs (semi-recumbent in the single dose study; semi-recumbent and standing in the repeat dose study). Adverse events were recorded throughout both studies. • Determination of IB-MECA blood level: in the single dose study blood samples for assay of IB-MECA were taken immediately before and at 0.25, 0.5, 1, 2, 4, 8, 12, 24, and 48 h after dosing; in the repeat dose study—blood samples were taken immediately before and at 0.25, 0.5, 1, 2, 4, 8, and 12 h after dosing on Day 1, before dosing on Days 2–6, and before and at 0.25, 0.5, 1, 2, 4, 8, 12, and 24 h after dosing on Day 7.
(§4) Plasma samples were assayed for IB-MECA using LC/MS/MS. The lower limit of quantification (LLOQ) was 0.1 ng/mL. Intra-assay coefficients of variation (CV) were <5.0% and inter-assay CVs were <9.4%.
(§5) Maximum concentration (Cmax) and time to maximum concentration (tmax) were observed values. Other pharmacokinetic parameters (half-life, t^1/2; AUC; and clearance, CL/F) were calculated by non-compartmental methods using WinNonlin® software (version 3.0, Pharsight, Mountain View, Calif., US). Accumulation indices of Cmax and AUC were calculated as ratio of values at steady state (Day 7) to the values on Day 1.

[2] = Human studies, plasma half life (data not shown); type: in vivo
healthy men = test: Single dose study in healthy men, safety and tolerability; type: in vivo, human; details: for maximal tolerated dose: once daily administration
Description: Two clinical studies were carried out: a single dose study and a repeat dose study. Both studies were parallel-group, double-blind, dose-rising, and placebo-controlled in design.
as §1
Healthy young men, aged 18–45 years.
as §2, §3
Data from all subjects who received IB-MECA were included in the analysis of safety and tolerability (adverse events and laboratory safety variables). Numerical data and parameters were summarised using means or medians, and other descriptive statistics, according to the type and distribution of the data.

macrophages = details: dose dependent; cited from earlier work
[3] = tested on: adjuvant induced arthritis; test: Adjuvant arthritis model in Lewis rats; type: in vivo, rat
[4] = Single dose study in healthy men, plasma pharmacokinetics; type: in vivo, human
Description: as §1, §2, §3, §4, §5

[5] = 5 mg every 12 h, Day 7, mean (SD)
[6] = repeated doses, independent of dose
[7] = single doses 1-10 mg, independent of dose
[8] = single oral dose 1 mg, mean (SD)
[9] = single oral dose 5 mg, mean (SD)
[10] = single oral dose 10 mg, mean (SD)

In the case of `CNC(=O)[C@H]1O[C@@H](n2cnc3c(NCc4cccc(I)c4)ncnc32)[C@H](O)[C@@H]1O` [IB-MECA, N6-(3-iodobenzyl)-adenosine-5′-N-methyl-uronamide], the “AUC (AUC(0–24) on Day 7)” value [1, 5] is reported as 818.4 (214.0) ng · h/mL, the “AUC(0–12)” value [1, 5] is reported as 601.0 (163.6) ng · h/mL and the CL/F [1, 5] is reported as 5.4 (1.5) L/h. The t1/2 [1, 5] was 9.39 (0.6) h, the Cmax ([1]; 5 mg every 12 h, Day 7, mean (SD), n=5) was 79.5 (24.1) ng/mL and the tmax ([1]; 5 mg every 12 h, Day 7, median (range)) was 2 (2–2) h. For the same compound, the “accumulation index for AUC” value ([1]; ratio Day 7 to Day 1) was 1.1–1.6, the “accumulation index for Cmax” value ([1]; ratio Day 7 to Day 1) was 1–1.4 and the tmax ([1]; repeated doses 2-5 mg every 12 h) was 1 to 2 h. For the same compound, the “steady state reached by” value ([1]; repeated doses every 12 h) was at most 3 days, the “apparent plasma clearance (CL/F)” value [1, 6] was 5 to 10 L/h and the “half-life at steady state” value [1, 6] was 9 to 10 h. For the same compound, the “half life in human plasma” value [2] was 8 to 10 h, the “change in resting heart rate” value (healthy men; after single 5 mg dose, four subjects) was “small increase in resting heart rate” and the resting heart rate (healthy men; after single 10 mg dose, 2 subjects, considered drug-related) was “up to 115 beats/min”. For the same compound, the maximal tolerated dose (healthy men) was “about 5 mg”, the maximal tolerated dose (healthy men; calculated on average human weight of 70 Kg) was “about 70 micro ram/Kg” and the “adverse events within 12 h of dosing” value (healthy men; single dose of 10 mg) was 8. For the same compound, the “adverse events within 12 h of dosing” value (healthy men; single doses of up to 5 mg) was “no adverse events”, the tolerability (healthy men; single oral doses of up to 5 mg) was “safe and well tolerated” and the “production of MIP-1α in macrophages” value (macrophages) was “suppresses the production of MIP-1α”. For the same compound, the “production of the cytokines IL-1, IL-2, IL-6 as well as NO” value (macrophages) was “inhibit, also in a dose dependent manner”, the “inflammation as assessed by the inflammation intensity score” value (“inflammation as assessed” for short) ([3]; 1 μg/day PO, FIG. 1B) was “significant reduction” and the “histological picture of the joint” value ([3]; 10 μg a day, FIG. 3B, untreated shows destruction of synovial tissue and bone) was “appeared completely normal”. The “inflammation as assessed” value ([3]; 10 μg/kg PO a day, treatment from day 7 after disease induction, FIG. 1A) was “effective in abolishing almost completely the inflammation”, the appearance of paws ([3]; 10 μg/kg a day PO, untreated rat paws extremely swollen and red) was “normal appearing paws” and the “inflammation as assessed” value ([3]; 100 μg/kg PO a day, treatment from day 7 after disease induction, FIG. 1A) was “effective in abolishing almost completely the inflammation”. The “plasma level (Cmax)” value ([4]; single daily dose of 5 mg and twice daily dose of 4 mg) was under 80 ng/mL, the Cmax ([4]; single daily dose of 5 mg and twice daily dose of 4 mg, read-out: plasma level (Cmax)) was under 160 nM and the tmax ([4]; single doses 1-10 mg) was 1 to 2 h. For the same compound, the “apparent plasma clearance (CL/F)” value [4, 7] was 4 to 7 L/h, the half-life [4, 7] was “about 8.5 h” and the “AUC(0–48)” value [4, 8] was 220.7 ng·h/mL. For the same compound, the “AUC(inf)” value [4, 8] was 225.2 (21.7) ng · h/mL, the CL/F [4, 8] was 4.5 (0.4) L/h and the t1/2 [4, 8] was 8.7 (0.7) h. The Cmax ([4]; single oral dose 1 mg, mean (SD), n=4) was 21.2 ng/mL, the tmax ([4]; single oral dose 1 mg, median (range)) was 1 (1–2) h and the “AUC(0–48)” value [4, 9] was 872.3 ng·h/mL. For the same compound, the “AUC(inf)” value [4, 9] was 904.0 (221.9) ng · h/mL, the CL/F [4, 9] was 5.8 (1.4) L/h and the t1/2 [4, 9] was 8.3 (0.2) h. For the same compound, the Cmax ([4]; single oral dose 5 mg, mean (SD), n=4) was 81.6 ng/mL, the tmax ([4]; single oral dose 5 mg, median (range)) was 1 (1–2) h and the “AUC(0–48)” value [4, 10] was 1780.0 ng·h/mL. For the same compound, the “AUC(inf)” value [4, 10] was 1813.0 (226.5) ng · h/mL, the CL/F [4, 10] was 5.6 (0.7) L/h and the t1/2 [4, 10] was 8.6 (0.4) h. The Cmax ([4]; single oral dose 10 mg, mean (SD), n=4) was 178.0 ng/mL and the tmax ([4]; single oral dose 10 mg, median (range)) was 1 (1–2) h.
